Reference: the kinase profiling compilation of Christmann-Franck et al. (2016)
Where “and” joins values, the source holds several entries; their conditions need not be identical. Identical values can stand only once.

Legend:
Assay in all cases: radiometric filter-binding kinase assay, Kinaseprofiler
EPHA2 (human) = EPHA2 (human) (UniProt P29317); conditions: ATP 155 µM
SIK1 (human) = SIK1 (human) (UniProt P57059); conditions: ATP 45 µM
MELK (human) = MELK (human) (UniProt Q14680); conditions: ATP 45 µM
EPHA5 (human) = EPHA5 (human) (UniProt P54756); conditions: ATP 10 µM
STK10 (human) = STK10 (human) (UniProt O94804); conditions: ATP 200 µM
HIPK3 (human) = HIPK3 (human) (UniProt Q9H422); conditions: ATP 15 µM
TAOK1 (human) = TAOK1 (human) (UniProt Q7L7X3); conditions: ATP 10 µM
TXK (human) = TXK (human) (UniProt P42681); conditions: ATP 200 µM
EPHA3 (human) = EPHA3 (human) (UniProt P29320); conditions: ATP 120 µM
GSG2 (human) = GSG2 (human) (UniProt Q8TF76); conditions: ATP 70 µM
MAP2K1 (human) = MAP2K1 (human) (UniProt Q02750); conditions: ATP 10 µM
MAP3K7 (human) = MAP3K7 (human) (UniProt O43318); conditions: ATP 45 µM
STK24 (human) = STK24 (human) (UniProt Q9Y6E0); conditions: ATP 15 µM
[1] = tested on: BRSK2 (human), Q8IWQ3 [S251I]; conditions: ATP 70 µM
DAPK1 (human) = DAPK1 (human) (UniProt P53355); conditions: ATP 70 µM
PRKCE (human) = PRKCE (human) (UniProt Q02156); conditions: ATP 45 µM
PDPK1 (human) = PDPK1 (human) (UniProt O15530); conditions: ATP 10 µM
NTRK1 (human) = NTRK1 (human) (UniProt P04629); conditions: ATP 120 µM
[2] = tested on: IRAK4 (human), Q9NWZ3 [A81V]; conditions: ATP 200 µM
BRSK1 (human) = BRSK1 (human) (UniProt Q8TDC3); conditions: ATP 200 µM
LYN (human) = LYN (human) (UniProt P07948); conditions: ATP 70 µM
LCK (human) = LCK (human) (UniProt P06239); conditions: ATP 90 µM
NLK (human) = NLK (human) (UniProt Q9UBE8); conditions: ATP 200 µM
ROCK2 (human) = ROCK2 (human) (UniProt O75116); conditions: ATP 15 µM
PTK2B (human) = PTK2B (human) (UniProt Q14289); conditions: ATP 90 µM
CDK5 CDK5R1 p35 (human) = CDK5 CDK5R1 p35 (human) (UniProt Q00535+Q15078); conditions: ATP 15 µM
MAPKAPK3 (human) = MAPKAPK3 (human) (UniProt Q16644); conditions: ATP 90 µM
CAMK4 (human) = CAMK4 (human) (UniProt Q16566); conditions: ATP 10 µM
FES (human) = FES (human) (UniProt P07332); conditions: ATP 45 µM
MAPK11 (human) = MAPK11 (human) (UniProt Q15759); conditions: ATP 45 µM
PDGFRA (human) = PDGFRA (human) (UniProt P16234); conditions: ATP 120 µM
PDGFRB (human) = PDGFRB (human) (UniProt P09619); conditions: ATP 200 µM

Sequence of LCK (human) (P06239 whole entry, looked up): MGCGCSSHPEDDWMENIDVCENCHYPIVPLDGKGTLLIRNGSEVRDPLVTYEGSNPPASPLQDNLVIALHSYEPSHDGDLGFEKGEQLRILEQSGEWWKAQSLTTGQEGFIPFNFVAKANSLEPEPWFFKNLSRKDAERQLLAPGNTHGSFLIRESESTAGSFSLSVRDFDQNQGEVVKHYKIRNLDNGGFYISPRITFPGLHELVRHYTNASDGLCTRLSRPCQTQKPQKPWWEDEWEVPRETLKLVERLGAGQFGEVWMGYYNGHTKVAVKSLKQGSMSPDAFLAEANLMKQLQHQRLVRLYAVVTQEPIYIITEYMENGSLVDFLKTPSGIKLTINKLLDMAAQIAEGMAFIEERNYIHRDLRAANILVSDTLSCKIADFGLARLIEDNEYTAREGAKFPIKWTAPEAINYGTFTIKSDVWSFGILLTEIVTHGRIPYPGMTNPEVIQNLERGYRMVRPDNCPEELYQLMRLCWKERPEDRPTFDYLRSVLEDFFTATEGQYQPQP
Sequence of DAPK1 (human) (P53355 whole entry, looked up): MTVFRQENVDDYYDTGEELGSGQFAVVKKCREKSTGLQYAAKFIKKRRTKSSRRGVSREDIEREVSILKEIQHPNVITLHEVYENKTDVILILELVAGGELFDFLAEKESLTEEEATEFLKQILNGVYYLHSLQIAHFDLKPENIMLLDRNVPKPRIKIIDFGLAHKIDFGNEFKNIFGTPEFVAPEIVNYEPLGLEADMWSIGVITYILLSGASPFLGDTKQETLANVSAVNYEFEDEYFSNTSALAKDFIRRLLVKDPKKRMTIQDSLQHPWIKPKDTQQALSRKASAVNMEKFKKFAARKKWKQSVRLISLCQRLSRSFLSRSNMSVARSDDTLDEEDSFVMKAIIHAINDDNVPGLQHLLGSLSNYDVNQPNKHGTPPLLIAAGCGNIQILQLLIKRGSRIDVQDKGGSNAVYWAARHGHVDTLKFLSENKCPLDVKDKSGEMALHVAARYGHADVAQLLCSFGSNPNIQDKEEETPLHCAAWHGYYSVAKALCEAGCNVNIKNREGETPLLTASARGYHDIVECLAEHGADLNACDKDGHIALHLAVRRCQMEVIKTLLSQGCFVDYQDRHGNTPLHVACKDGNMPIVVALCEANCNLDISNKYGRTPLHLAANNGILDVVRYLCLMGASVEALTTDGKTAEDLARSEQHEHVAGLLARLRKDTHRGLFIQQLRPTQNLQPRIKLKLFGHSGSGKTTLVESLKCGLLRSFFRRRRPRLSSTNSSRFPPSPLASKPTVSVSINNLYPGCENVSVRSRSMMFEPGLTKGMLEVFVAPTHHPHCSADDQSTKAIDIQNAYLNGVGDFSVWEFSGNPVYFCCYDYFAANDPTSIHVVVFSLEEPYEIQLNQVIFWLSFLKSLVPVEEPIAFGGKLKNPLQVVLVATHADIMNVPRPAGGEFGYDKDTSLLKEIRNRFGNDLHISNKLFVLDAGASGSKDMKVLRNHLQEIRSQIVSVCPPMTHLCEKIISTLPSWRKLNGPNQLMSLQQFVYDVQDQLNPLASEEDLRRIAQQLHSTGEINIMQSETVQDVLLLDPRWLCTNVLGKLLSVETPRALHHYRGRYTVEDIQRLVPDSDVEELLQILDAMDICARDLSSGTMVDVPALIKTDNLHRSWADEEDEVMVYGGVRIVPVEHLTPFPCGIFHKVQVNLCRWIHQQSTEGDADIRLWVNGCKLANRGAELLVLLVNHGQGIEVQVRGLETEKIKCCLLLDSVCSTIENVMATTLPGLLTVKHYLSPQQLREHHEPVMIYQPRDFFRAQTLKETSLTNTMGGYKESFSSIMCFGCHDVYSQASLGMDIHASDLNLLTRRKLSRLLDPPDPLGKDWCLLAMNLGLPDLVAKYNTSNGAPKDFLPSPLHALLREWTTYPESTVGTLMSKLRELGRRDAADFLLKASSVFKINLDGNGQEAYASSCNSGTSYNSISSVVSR
Sequence of SIK1 (human) (P57059 whole entry, looked up): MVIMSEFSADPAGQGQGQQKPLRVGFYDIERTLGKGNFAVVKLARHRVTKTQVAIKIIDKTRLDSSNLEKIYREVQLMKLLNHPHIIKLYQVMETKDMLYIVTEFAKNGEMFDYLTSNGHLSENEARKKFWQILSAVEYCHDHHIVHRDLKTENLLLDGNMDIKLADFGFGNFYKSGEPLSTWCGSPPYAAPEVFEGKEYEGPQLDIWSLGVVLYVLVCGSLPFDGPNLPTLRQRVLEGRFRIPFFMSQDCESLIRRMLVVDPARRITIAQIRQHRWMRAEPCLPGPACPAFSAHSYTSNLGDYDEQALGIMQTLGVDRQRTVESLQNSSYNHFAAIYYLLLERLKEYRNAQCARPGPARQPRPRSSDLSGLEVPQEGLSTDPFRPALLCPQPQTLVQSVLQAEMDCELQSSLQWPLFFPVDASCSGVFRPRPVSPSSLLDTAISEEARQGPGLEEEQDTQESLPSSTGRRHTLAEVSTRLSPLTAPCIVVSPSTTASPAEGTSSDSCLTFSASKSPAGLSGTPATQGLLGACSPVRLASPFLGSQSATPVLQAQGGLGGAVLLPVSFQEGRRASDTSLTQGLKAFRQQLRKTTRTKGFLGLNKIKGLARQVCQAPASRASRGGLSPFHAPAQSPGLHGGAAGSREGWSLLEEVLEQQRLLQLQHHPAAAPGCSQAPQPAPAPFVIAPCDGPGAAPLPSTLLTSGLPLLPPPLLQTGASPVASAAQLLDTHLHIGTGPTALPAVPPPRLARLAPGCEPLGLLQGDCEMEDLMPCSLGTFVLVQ
Sequence of EPHA3 (human) (P29320 whole entry, looked up): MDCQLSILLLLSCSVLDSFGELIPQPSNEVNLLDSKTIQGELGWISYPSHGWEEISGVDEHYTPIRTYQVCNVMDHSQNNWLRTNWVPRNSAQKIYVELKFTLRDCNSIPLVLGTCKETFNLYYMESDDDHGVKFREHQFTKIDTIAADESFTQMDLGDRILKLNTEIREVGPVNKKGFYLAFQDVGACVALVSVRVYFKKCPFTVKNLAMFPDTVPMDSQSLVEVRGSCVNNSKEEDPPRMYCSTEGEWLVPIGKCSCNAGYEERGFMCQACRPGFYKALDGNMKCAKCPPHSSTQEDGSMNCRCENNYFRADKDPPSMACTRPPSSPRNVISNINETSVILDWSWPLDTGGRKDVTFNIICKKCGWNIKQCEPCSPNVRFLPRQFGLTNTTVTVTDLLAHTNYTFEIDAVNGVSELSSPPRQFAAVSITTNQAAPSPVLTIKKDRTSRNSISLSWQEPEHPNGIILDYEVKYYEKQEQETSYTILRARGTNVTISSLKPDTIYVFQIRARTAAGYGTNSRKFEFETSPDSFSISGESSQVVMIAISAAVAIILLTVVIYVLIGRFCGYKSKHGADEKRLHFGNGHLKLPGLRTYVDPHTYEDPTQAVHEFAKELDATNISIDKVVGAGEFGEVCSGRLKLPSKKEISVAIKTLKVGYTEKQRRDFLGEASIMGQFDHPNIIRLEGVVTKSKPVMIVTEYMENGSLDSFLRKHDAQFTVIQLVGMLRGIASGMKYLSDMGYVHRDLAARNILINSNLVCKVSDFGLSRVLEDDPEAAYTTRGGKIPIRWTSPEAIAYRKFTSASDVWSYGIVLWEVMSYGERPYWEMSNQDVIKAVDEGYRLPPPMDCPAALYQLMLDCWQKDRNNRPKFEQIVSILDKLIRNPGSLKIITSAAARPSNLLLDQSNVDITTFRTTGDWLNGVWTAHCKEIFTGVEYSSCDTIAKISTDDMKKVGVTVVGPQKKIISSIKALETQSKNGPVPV
Sequence of MELK (human) (Q14680 whole entry, looked up): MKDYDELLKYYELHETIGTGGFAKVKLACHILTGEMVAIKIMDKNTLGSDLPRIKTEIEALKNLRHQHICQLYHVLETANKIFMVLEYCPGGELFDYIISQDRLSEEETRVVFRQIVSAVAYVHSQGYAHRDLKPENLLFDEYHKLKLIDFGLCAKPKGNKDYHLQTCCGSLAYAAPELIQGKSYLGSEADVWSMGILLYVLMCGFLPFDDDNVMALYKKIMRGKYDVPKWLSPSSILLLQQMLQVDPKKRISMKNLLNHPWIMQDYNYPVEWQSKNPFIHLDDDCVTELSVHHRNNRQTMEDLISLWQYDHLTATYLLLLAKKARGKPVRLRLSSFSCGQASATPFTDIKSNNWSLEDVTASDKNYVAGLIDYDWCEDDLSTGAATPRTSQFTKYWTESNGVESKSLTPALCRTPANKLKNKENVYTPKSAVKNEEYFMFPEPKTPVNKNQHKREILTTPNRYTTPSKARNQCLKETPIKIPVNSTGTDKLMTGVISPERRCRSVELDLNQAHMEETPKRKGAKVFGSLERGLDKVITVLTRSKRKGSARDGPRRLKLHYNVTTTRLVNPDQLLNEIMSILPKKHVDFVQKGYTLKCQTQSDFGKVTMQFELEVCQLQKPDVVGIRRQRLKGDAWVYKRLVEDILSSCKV
Sequence of STK24 (human) (Q9Y6E0 whole entry, looked up): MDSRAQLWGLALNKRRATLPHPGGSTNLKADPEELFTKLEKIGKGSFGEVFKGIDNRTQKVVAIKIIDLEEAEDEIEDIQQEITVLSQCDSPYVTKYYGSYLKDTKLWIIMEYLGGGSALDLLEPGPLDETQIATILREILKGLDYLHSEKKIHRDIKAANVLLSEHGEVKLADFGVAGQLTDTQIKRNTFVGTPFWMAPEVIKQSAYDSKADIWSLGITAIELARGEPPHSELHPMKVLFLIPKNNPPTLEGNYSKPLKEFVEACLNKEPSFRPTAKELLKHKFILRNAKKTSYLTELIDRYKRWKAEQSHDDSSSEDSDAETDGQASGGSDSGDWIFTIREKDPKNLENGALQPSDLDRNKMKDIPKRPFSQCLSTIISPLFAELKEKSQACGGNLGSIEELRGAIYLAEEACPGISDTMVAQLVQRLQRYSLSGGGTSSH

O=C1Nc2ccccc2/C1=C1\Nc2ccccc2\C1=N/O
residual activity (EPHA2 (human); compound 1.0 µM): 61% | residual activity (EPHA2 (human); compound 10.0 µM): 16% | residual activity (SIK1 (human); compound 1.0 µM): 43% | residual activity (SIK1 (human); compound 10.0 µM): 8% | residual activity (MELK (human); compound 1.0 µM): 15% | residual activity (MELK (human); compound 10.0 µM): 7% | residual activity (EPHA5 (human); compound 1.0 µM): 59% | residual activity (EPHA5 (human); compound 10.0 µM): 9% | residual activity (STK10 (human); compound 1.0 µM): 66% | residual activity (STK10 (human); compound 10.0 µM): 71% | residual activity (HIPK3 (human); compound 1.0 µM): 88% | residual activity (HIPK3 (human); compound 10.0 µM): 19% | residual activity (TAOK1 (human); compound 1.0 µM): 83% | residual activity (TAOK1 (human); compound 10.0 µM): 39% | residual activity (TXK (human); compound 1.0 µM): 45% | residual activity (TXK (human); compound 10.0 µM): 11% | residual activity (EPHA3 (human); compound 1.0 µM): 58% | residual activity (EPHA3 (human); compound 10.0 µM): 9% | residual activity (GSG2 (human); compound 1.0 µM): 26% | residual activity (GSG2 (human); compound 10.0 µM): 19% | residual activity (MAP2K1 (human); compound 1.0 µM): 64% | residual activity (MAP2K1 (human); compound 10.0 µM): 55% | residual activity (MAP3K7 (human); compound 1.0 µM): 64% | residual activity (MAP3K7 (human); compound 10.0 µM): 71% | residual activity (STK24 (human); compound 1.0 µM): 42% | residual activity (STK24 (human); compound 10.0 µM): 10% | residual activity ([1]; compound 1.0 µM): 10% | residual activity ([1]; compound 10.0 µM): 5% | residual activity (DAPK1 (human); compound 1.0 µM): 91% | residual activity (DAPK1 (human); compound 10.0 µM): 67% | residual activity (PRKCE (human); compound 1.0 µM): 106% | residual activity (PRKCE (human); compound 10.0 µM): 91% | residual activity (PDPK1 (human); compound 1.0 µM): 53% | residual activity (PDPK1 (human); compound 10.0 µM): 9% | residual activity (NTRK1 (human); compound 1.0 µM): 0% | residual activity (NTRK1 (human); compound 10.0 µM): 0% | residual activity ([2]; compound 1.0 µM): 41% | residual activity ([2]; compound 10.0 µM): 6% | residual activity (BRSK1 (human); compound 1.0 µM): 13% | residual activity (BRSK1 (human); compound 10.0 µM): 12% | residual activity (LYN (human); compound 1.0 µM): 8% | residual activity (LYN (human); compound 10.0 µM): 2% | residual activity (LCK (human); compound 1.0 µM): 13% and 22% | residual activity (LCK (human); compound 10.0 µM): 6% and 17% | residual activity (NLK (human); compound 1.0 µM): 82% | residual activity (NLK (human); compound 10.0 µM): 67% | residual activity (ROCK2 (human); compound 1.0 µM): 85% | residual activity (ROCK2 (human); compound 10.0 µM): 82% | residual activity (PTK2B (human); compound 1.0 µM): 14% | residual activity (PTK2B (human); compound 10.0 µM): 2% | residual activity (CDK5 CDK5R1 p35 (human); compound 1.0 µM): 5% | residual activity (CDK5 CDK5R1 p35 (human); compound 10.0 µM): 1% | residual activity (MAPKAPK3 (human); compound 1.0 µM): 117% | residual activity (MAPKAPK3 (human); compound 10.0 µM): 88% | residual activity (CAMK4 (human); compound 1.0 µM): 66% | residual activity (CAMK4 (human); compound 10.0 µM): 10% | residual activity (FES (human); compound 1.0 µM): 72% | residual activity (FES (human); compound 10.0 µM): 30% | residual activity (MAPK11 (human); compound 1.0 µM): 101% | residual activity (MAPK11 (human); compound 10.0 µM): 90% | residual activity (PDGFRA (human); compound 1.0 µM): 87% | residual activity (PDGFRA (human); compound 10.0 µM): 37% | residual activity (PDGFRB (human); compound 1.0 µM): 84% | residual activity (PDGFRB (human); compound 10.0 µM): 26%
